The text below walks through data of patent publication US10023559B2 (Hoffmann-La Roche Inc., priority 2014, dated 2018).

Experiment [1] deals with mouse TAAR1 (Mus musculus (Mouse), UniProt Q923Y8). Briefly: Radioligand binding assay on mouse TAAR1.
Description: Membrane Preparation and Radioligand Binding.
HEK-293 cells stably expressing mouse TAAR1 were maintained at 37° C. and 5% CO2 in DMEM high glucose medium, containing fetal calf serum (10%, heat inactivated for 30 min at 56° C.), penicillin/streptomycin (1%), and 375 μg/ml geneticin (Gibco). Cells were released from culture flasks using trypsin/EDTA, harvested, washed twice with ice-cold PBS (without Ca^2+ and Mg^2+), pelleted at 1,000 rpm for 5 min at 4° C., frozen and stored at −80° C. Frozen pellets were suspended in 20 ml HEPES-NaOH (20 mM, pH 7.4) containing 10 mM EDTA and homogenized with a Polytron (PT 6000, Kinematica) at 14,000 rpm for 20 s. The homogenate was centrifuged at 48,000×g for 30 min at 4° C. Subsequently, the supernatant was removed and discarded, and the pellet resuspended in 20 ml HEPES-NaOH (20 mM, pH 7.4) containing 0.1 mM EDTA using the Polytron (20 s at 14,000 rpm). This procedure was repeated and the final pellet resuspended in HEPES-NaOH containing 0.1 mM EDTA and homogenized using the Polytron. Typically, aliquots of 2 ml membrane portions were stored at −80° C. With each new membrane batch the dissociation constant (Kd) was determined via a saturation curve. […] Nonspecific binding was defined as the amount of ^3[H]—(S)-4-[(ethyl-phenyl-amino)-methyl]-4,5-dihydro-oxazol-2-ylamine bound in the presence of 10 M unlabeled ligand. All compounds were tested at a broad range of concentrations (10 pM to 10 μM) in duplicates. […] The 96 deep well plates were incubated for 1 hr at 4° C. Incubations were terminated by rapid filtration through Unifilter-96 plates (Packard Instrument Company) and glass filters GF/C (Perkin Elmer) presoaked for 1 hr in polyethylenimine (0.3%) and washed 3 times with 1 ml of cold binding buffer. After addition of 45 μl of Microscint 40 (PerkinElmer) the Unifilter-96 plate was sealed and after 1 hr the radioactivity counted using a TopCount Microplate Scintillation Counter (Packard Instrument Company).
The target of experiment [2] is rat TAAR1 (Rattus norvegicus (Rat), UniProt Q923Y9). Kind of experiment: Radioligand binding assay on rat TAAR1. The conditions noted are these: read-out: Ki(μM) rat; rat TAAR1, HEK-293 membranes, second value of cell pair mouse/rat.
Sequence of rat TAAR1 (Q923Y9 whole entry): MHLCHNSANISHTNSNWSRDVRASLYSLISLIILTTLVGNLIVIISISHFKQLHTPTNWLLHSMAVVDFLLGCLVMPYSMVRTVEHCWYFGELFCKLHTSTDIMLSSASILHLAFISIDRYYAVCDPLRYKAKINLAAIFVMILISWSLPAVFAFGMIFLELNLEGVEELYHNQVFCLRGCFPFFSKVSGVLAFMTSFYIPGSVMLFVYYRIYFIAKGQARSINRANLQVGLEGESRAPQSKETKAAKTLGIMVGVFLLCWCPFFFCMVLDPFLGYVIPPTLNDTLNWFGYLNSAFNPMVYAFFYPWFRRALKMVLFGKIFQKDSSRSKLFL

Sequence of mouse TAAR1 (Q923Y8 whole entry): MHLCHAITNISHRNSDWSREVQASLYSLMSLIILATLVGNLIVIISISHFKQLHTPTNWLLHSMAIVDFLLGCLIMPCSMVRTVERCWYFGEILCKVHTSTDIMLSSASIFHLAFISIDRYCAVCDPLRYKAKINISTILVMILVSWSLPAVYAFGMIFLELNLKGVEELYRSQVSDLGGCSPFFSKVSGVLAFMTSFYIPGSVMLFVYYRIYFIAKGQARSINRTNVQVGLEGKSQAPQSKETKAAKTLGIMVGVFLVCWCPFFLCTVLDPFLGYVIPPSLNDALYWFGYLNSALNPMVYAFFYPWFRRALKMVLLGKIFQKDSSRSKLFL

By Ki is commonly meant a dissociation constant, usually derived from enzyme kinetics or from competition with a known ligand. `CO[C@@H]1CN[C@H]1Cc1ccccc1` [Example 95, (2S,3R)-2-benzyl-3-methoxyazetidine]: the Ki was found to be 2770 nM in experiment [1] and 0.648 µM in experiment [2].

As for `F[C@@H]1CN[C@@H]1Cc1ccccc1` [Example 92, (2R,3R)-2-benzyl-3-fluoroazetidine], the Ki in experiment [1] was determined as 244 nM; in experiment [2], 0.607 µM.

With `O=C(Nc1ccc(CC2CNC2)cc1)c1ccc(Cl)nc1` [Example 64, N-[4-(azetidin-3-ylmethyl)phenyl]-6-chloro-pyridine-3-carboxamide], the Ki came to 15 nM in experiment [1] and 0.0615 µM in experiment [2].

`CC(C)c1cc(C(=O)Nc2ccc(OC3CNC3)cc2)[nH]n1` [Example 12, N-(4-(azetidin-3-yloxy)phenyl)-3-isopropyl-1H-pyrazole-5-carboxamide]: the figures for the inhibitory constant (Ki) in experiment [1] and in experiment [2] were 137 nM and 0.0927 µM, respectively.

On to `CCc1n[nH]c(C(=O)Nc2ccc(OC3CNC3)cc2)c1C` [Example 11, N-(4-(azetidin-3-yloxy)phenyl)-3-ethyl-4-methyl-1H-pyrazole-5-carboxamide], for which the inhibitory constant (Ki) was 64.5 nM in experiment [1] and 0.0808 µM in experiment [2].

On to `COc1ccc(NC(=O)Nc2ccc(CC3CNC3)cc2)cc1` [Example 114, 1-[4-(azetidin-3-ylmethyl)phenyl]-3-(4-methoxyphenyl)urea], for which the results for the Ki in experiment [1] and in experiment [2] were 160 nM and 0.156 µM, respectively.

With `FC(F)(F)c1cnc(Nc2ccc(C=C3CNC3)cc2)nc1` [Example 63, N-[4-(azetidin-3-ylidenemethyl)phenyl]-5-(trifluoromethyl)pyrimidin-2-amine], the inhibitory constant (Ki) is 61.4 nM in experiment [1] and 0.0385 µM in experiment [2].

Regarding `O=C(Nc1ccc(CC2CNC2)cc1)Nc1ccc(C(F)(F)F)cc1` [Example 113, 1-[4-(azetidin-3-ylmethyl)phenyl]-3-[4-(trifluoromethyl)phenyl]urea], the figures for the inhibition constant (Ki) in experiment [1] and in experiment [2] were 8.7 nM and 0.0042 µM, respectively.

Turning to `CCc1cc(C(=O)Nc2cc(F)c(C=C3CNC3)c(F)c2)nc(C(F)(F)F)n1` [Example 87, N-(4-(azetidin-3-ylidenemethyl)-3,5-difluorophenyl)-6-ethyl-2-(trifluoromethyl)pyrimidine-4-carboxamide], the inhibitory constant (Ki) in experiment [1] amounted to 12.2 nM; in experiment [2] it was 0.0024 µM.

On to `O=C(Nc1ccc(C[C@@H]2NC[C@@H]2F)cc1)c1cnc(C2CC2)nc1` [Example 129, 2-cyclopropyl-N-(4-(((2S,3S)-3-fluoroazetidin-2-yl)methyl)phenyl)pyrimidine-5-carboxamide], for which the results for the inhibitory constant (Ki) in experiment [1] and in experiment [2] were 8.9 nM and 0.055 µM, respectively.

Consider `O=C(Nc1ccc(C[C@@H]2CCN2)cc1)c1ccc(Cl)nc1` [Example 79, N-[4-[[(2R)-azetidin-2-yl]methyl]phenyl]-6-chloro-pyridine-3-carboxamide], for which the Ki in experiment [1] is 10 nM; in experiment [2], 0.348 µM.

Regarding `O=C(Nc1ccc(OC2CNC2)cc1)c1cnc(OCC(F)(F)F)nc1` [Example 19, N-(4-(azetidin-3-yloxy)phenyl)-2-(2,2,2-trifluoroethoxy)pyrimidine-5-carboxamide], the Ki in experiment [1] was 12.8 nM; in experiment [2], 0.0208 µM.

Turning to `CCOc1ccc(C(=O)Nc2ccc(C[C@H]3NC[C@H]3F)cc2)cn1` [Example 122, 6-ethoxy-N-(4-(((2R,3R)-3-fluoroazetidin-2-yl)methyl)phenyl)nicotinamide], the Ki in experiment [1] stood at 9.7 nM; in experiment [2], 1.16 µM.

As for `O=C(Nc1ccccc1)c1ccc(OC2CNC2)cc1` [Example 20, 4-(azetidin-3-yloxy)-N-phenyl-benzamide], the Ki was 478 nM in experiment [1] and 1.03 µM in experiment [2].

For the compound `CCc1n[nH]c(C(=O)Nc2ccc(CC3(F)CNC3)cc2)c1Cl` [Example 66, 4-chloro-3-ethyl-N-[4-[(3-fluoroazetidin-3-yl)methyl]phenyl]-1H-pyrazole-5-carboxamide], the values for the inhibition constant Ki in experiment [1] and in experiment [2] were 323 nM and 0.0824 µM, respectively.
